Assay results from PubChem BioAssay AID1845194 (Molecular Pharmacology Branch, DTP, NCI, 2023).

System: 287954-098-R-J1 tumor spheroid viability
Assay: Anticancer human tumor 287954-098-R-J1 patient-derived Ewing sarcoma cell line growth inhibition
Details: spheroids with HUVEC and MSC; for IC50: curve of first compound; for viability, T/C: stronger effect = lower value; active = viability on the fitted dose curve at most 10% of control; inactive = the rest
Procedure, shortened: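 Single agents and combinations were tested on spheroids built from tumor cells plus HUVEC and hMSC, at half-log dilutions starting at or near clinical Cmax, else 10 microM; final DMSO 0.25% (v/v).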

[1] = second compound 1 µM, first compound 0.0949 µM
[2] = second compound 1 µM, first compound 0.3 µM
[3] = second compound 1 µM, first compound 0.949 µM
[4] = second compound 1 µM, first compound 3 µM
[5] = second compound 3.16 µM, first compound 0.0949 µM
[6] = second compound 3.16 µM, first compound 0.3 µM
[7] = second compound 3.16 µM, first compound 0.949 µM
[8] = second compound 3.16 µM, first compound 3 µM
[9] = second compound 10 µM, first compound 0.0949 µM
[10] = second compound 10 µM, first compound 0.3 µM
[11] = second compound 10 µM, first compound 0.949 µM
[12] = second compound 10 µM, first compound 3 µM
[13] = second compound 31.6 µM, first compound 0.0949 µM
[14] = second compound 31.6 µM, first compound 0.3 µM
[15] = second compound 31.6 µM, first compound 0.949 µM
[16] = second compound 31.6 µM, first compound 3 µM
[17] = second compound 100 µM, first compound 0.0949 µM
[18] = second compound 100 µM, first compound 0.3 µM
[19] = second compound 100 µM, first compound 0.949 µM
[20] = second compound 100 µM, first compound 3 µM
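Note: spheroids exposed to compound for 7 days before viability readout.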
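Throughout, for viability, T/C: luminescent signal taken as surrogate of viable cell content; 100% = DMSO vehicle control viability and lower means growth inhibition.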

Cn1ncnc1[C@H]1c2n[nH]c(=O)c3cc(F)cc(c23)N[C@@H]1c1ccc(F)cc1 + Cn1nnc2c(C(N)=O)ncn2c1=O
active: viability, T/C [3] 8.18% | viability, T/C [4] 2.42% | viability, T/C [7] 3.64% | viability, T/C [8] 2.29% | viability, T/C [11] 2.82% | viability, T/C [12] 2.58% | viability, T/C [14] 2.5% | viability, T/C [15] 2.34% | viability, T/C [16] 2.04% | viability, T/C (second compound 100 µM, first compound 0.00949 µM) 3.4% | viability, T/C (second compound 100 µM, first compound 0.03 µM) 2.77% | viability, T/C [17] 2.49% | viability, T/C [18] 2.57% | viability, T/C [19] 2.68% | viability, T/C [20] 2.3%
57 nM: IC50 (second compound 31.6 µM)
506 nM: IC50 (second compound 10 µM)
544 nM: IC50 (second compound 1 µM)
543 nM: IC50 (second compound 3.16 µM)
< 9.49 nM: IC50 (second compound 100 µM)
inactive: viability, T/C (second compound 1 µM, first compound 0.00949 µM) 111% | viability, T/C (second compound 1 µM, first compound 0.03 µM) 106% | viability, T/C [1] 104% | viability, T/C [2] 94.7% | viability, T/C (second compound 3.16 µM, first compound 0.00949 µM) 112% | viability, T/C (second compound 3.16 µM, first compound 0.03 µM) 106% | viability, T/C [5] 106% | viability, T/C [6] 99.2% | viability, T/C (second compound 10 µM, first compound 0.00949 µM) 102% | viability, T/C (second compound 10 µM, first compound 0.03 µM) 106% | viability, T/C [9] 104% | viability, T/C [10] 89.2% | viability, T/C (second compound 31.6 µM, first compound 0.00949 µM) 104% | viability, T/C (second compound 31.6 µM, first compound 0.03 µM) 90.6% | viability, T/C [13] 17.9%

O=C(c1cc(Cc2n[nH]c(=O)c3ccccc23)ccc1F)N1CCN(C(=O)C2CC2)CC1 + Cn1nnc2c(C(N)=O)ncn2c1=O
3410 nM: IC50 (second compound 31.6 µM)
10400 nM: IC50 (second compound 10 µM)
active: viability, T/C (second compound 10 µM, first compound 30 µM) 4.76% | viability, T/C (second compound 31.6 µM, first compound 9.49 µM) 2.11% | viability, T/C (second compound 31.6 µM, first compound 30 µM) 1.97% | viability, T/C [20] 2.13% | viability, T/C (second compound 100 µM, first compound 9.49 µM) 1.91% | viability, T/C (second compound 100 µM, first compound 30 µM) 1.8%
20600 nM: IC50 (second compound 1 µM)
inactive: viability, T/C [1] 97.5% | viability, T/C [2] 97.2% | viability, T/C [3] 106% | viability, T/C [4] 95.1% | viability, T/C (second compound 1 µM, first compound 9.49 µM) 86.2% | viability, T/C (second compound 1 µM, first compound 30 µM) 32.5% | viability, T/C [5] 104% | viability, T/C [6] 101% | viability, T/C [7] 98.2% | viability, T/C [8] 105% | viability, T/C (second compound 3.16 µM, first compound 9.49 µM) 85.1% | viability, T/C (second compound 3.16 µM, first compound 30 µM) 34% | viability, T/C [9] 107% | viability, T/C [10] 107% | viability, T/C [11] 93.6% | viability, T/C [12] 99% | viability, T/C (second compound 10 µM, first compound 9.49 µM) 53.7% | viability, T/C [13] 107% | viability, T/C [14] 103% | viability, T/C [15] 106% | viability, T/C [16] 56% | viability, T/C [17] 104% | viability, T/C [18] 88.5% | viability, T/C [19] 27.7%
621 nM: IC50 (second compound 100 µM)
20900 nM: IC50 (second compound 3.16 µM)

CC1COCCN1c1cc(-c2ccnn2C)c2ccnc(-c3ccn[nH]3)c2n1 (stereo not given) + COc1cc2c(cc1O)CCNC21CSC2c3c(OC(C)=O)c(C)c4c(c3C(COC1=O)N1C(O)C3Cc5cc(C)c(OC)c(O)c5C(C21)N3C)OCO4
48.3 nM: IC50 (second compound 94.9 pM)
74.6 nM: IC50 (second compound 30 pM)
inactive: viability, T/C (second compound 30 pM, first compound 0.0316 µM) 111% | viability, T/C (second compound 30 pM, first compound 0.1 µM) 28.8% | viability, T/C (second compound 94.9 pM, first compound 0.0316 µM) 73.7%
< 31.6 nM: IC50 (second compound 0.0003 µM) | IC50 (second compound 0.000949 µM) | IC50 (second compound 0.003 µM)
active: viability, T/C (second compound 30 pM, first compound 0.316 µM) 7.3% | viability, T/C (second compound 30 pM, first compound 1 µM) 4.7% | viability, T/C (second compound 30 pM, first compound 3.16 µM) 1.8% | viability, T/C (second compound 30 pM, first compound 10 µM) 2.96% | viability, T/C (second compound 94.9 pM, first compound 0.1 µM) 9.38% | viability, T/C (second compound 94.9 pM, first compound 0.316 µM) 3.08% | viability, T/C (second compound 94.9 pM, first compound 1 µM) 1.84% | viability, T/C (second compound 94.9 pM, first compound 3.16 µM) 1.08% | viability, T/C (second compound 94.9 pM, first compound 10 µM) 2.57% | viability, T/C (second compound 0.0003 µM, first compound 0.0316 µM) 2.38% | viability, T/C (second compound 0.0003 µM, first compound 0.1 µM) 1.69% | viability, T/C (second compound 0.0003 µM, first compound 0.316 µM) 1.1% | viability, T/C (second compound 0.0003 µM, first compound 1 µM) 0.7% | viability, T/C (second compound 0.0003 µM, first compound 3.16 µM) 0.69% | viability, T/C (second compound 0.0003 µM, first compound 10 µM) 0.94% | viability, T/C (second compound 0.000949 µM, first compound 0.0316 µM) 0.28% | viability, T/C (second compound 0.000949 µM, first compound 0.1 µM) 0.34% | viability, T/C (second compound 0.000949 µM, first compound 0.316 µM) 0.31% | viability, T/C (second compound 0.000949 µM, first compound 1 µM) 0.09% | viability, T/C (second compound 0.000949 µM, first compound 3.16 µM) 0.03% | viability, T/C (second compound 0.000949 µM, first compound 10 µM) 0.13% | viability, T/C (second compound 0.003 µM, first compound 0.0316 µM) 0.19% | viability, T/C (second compound 0.003 µM, first compound 0.1 µM) 0.19% | viability, T/C (second compound 0.003 µM, first compound 0.316 µM) 0.14% | viability, T/C (second compound 0.003 µM, first compound 1 µM) 0.12% | viability, T/C (second compound 0.003 µM, first compound 3.16 µM) 0.11% | viability, T/C (second compound 0.003 µM, first compound 10 µM) 0.22%
